In assay [1] the test system is GTP-bound RhoA. As to the kind of experiment: GTP-associated active RhoA in ECV304 membrane fraction (western blot). In kind it is cell-based. Here is the method:
(§1) To measure the GTP-associated active RhoA, the following cell lines were used: Caco-2, ECV304 and HpMec. All cells were grown at standard conditions (37° C., 5% CO2 and 95% rH). 4 h before the experiment, cells were starved by serum withdrawal. To induce GEF-activity, cells were stimulated with thrombin, LPS or PMA for the indicated time in presence or absence of 50 μg/ml XIB1-a or XIB1-b. After stimulation, membrane fractions were prepared by using the commercial available “Compartemental Protein Extraction Kit” from Biochain Institutes. Membrane fractions were prepared according to the manufacturer instructions. The membrane fraction was separated on 15% polyacrylamide gel according to standard procedures of gel electrophoresis. The gels were afterwards blotted on a nitrocellulose membrane according to standard procedures of western blotting. GTP-bound RhoA was detected using RhoA-GTP monoclonal antibody from NewEast Inc. in a dilution of 1:5000. Protein bands were analyzed with the Dolphin-1D Gel analysis system (Wealtec).

Assay [2] relates to GTP-bound RhoA. The assay is described as follows: GTP-associated active RhoA in HpMec membrane fraction (western blot). In kind it is cell-based. As to conditions: HpMec. As to the method:
as §1

The test system of assay [3] is Phosphorylated Myosin Light Chain (MLC) and actin stress fibers. The assay is described as follows: MLC phosphorylation and actin stress fiber formation in Caco-2 cells (microscopy score). In kind it is cell-based. Here is the method:
To measure MLC phosphorylation and actin stress fiber formation, the following cell lines were used: Caco-2, ECV304 and HpMec. All cells were grown at standard conditions (37° C., 5% CO2 and 95% rH). Culture Medium used: for Caco-2: DMEM+1 mM sodium pyruvate+20% FCS+1% Penicillin Streptomycin; for ECV 304: RPMI 1640+10% FCS+1% Penicillin Streptomycin; and for HpMec: IMDM+25 mM Hepes+10% Human Serum+1% Penicillin Streptomycin+1% L-Glutamine+ECGS/Heparin 2 ml. 4 h before the experiment, cells were starved by serum withdrawal. To induce GEF-activity, cells were stimulated with thrombin, LPS or PMA for the indicated time in presence or absence of 50 μg/ml XIB1-a or XIB1-b. After stimulation, cells were fixed using 4% PFA. Phospho MLC was detected by using the “rabbit anti phosphor-myosin light chain antibody” from Chemicon in a concentration of 3 μl/ml in PBS (Gibco) supplemented with 0.1% Triton X-100. As detection antibody, the Alexa 448 tagged “anti Rabbit IgG Antibody” from Invitrogen was used in a concentration of 0.5 μl/ml in PBS (Gibco) supplemented with 0.1% Triton X-100. Aktin was detected using TRITC-labeled Phalloidin in a concentration of 0.5 μl/ml in PBS (Gibco) supplemented with 0.1% Triton. Stained cells were analyzed by using a Zeiss Laser Scan microscope. Evaluation of the cyto-skeletal activation was performed by 2 independent observers that were blinded to the conditions. Evaluation criteria were set as follows:
Actin: parallel actin bundles absent=0; distinct bundle formation=1; prominent parallel bundles=2; Phospho-MLC: present at cell poles=0; slight co-localization with actin bundles=1; prominent co-localization with actin bundles=2

The test system of assay [4] is LPS induced lung injury. As to the kind of experiment: LPS induced lung injury, bronchoalveolar lavage. It counts as in vivo. As to conditions: mice; for effect on barrier function in the LPS-inhalation model (neutrophils and albumin in BALF): equal in groups treated intraperitoneally and intratracheally; for counts of neutrophils in the BALF (mean +/ SD) / albumine content of BALFs (mean +/ SD): n = 20. Here is the method:
Male C57Bl/6 Mice (Charles River, Germany) were kept at the animal facility of the Medical University of Vienna, feed with standard diet and water was provided ad libitum. All interventions were performed according to the guide lines of AAALAC (Association for Assessment and Accreditation of Laboratory Animal Care). All experiment were approved by the Ethic committee of the Medical University of Vienna. Mice were anesthetized with isoflouran and treated with 100 ng of LPS (E. coli O55:B5, Sigma Aldrich) intranasally. XIB1-a or XIB1-b was applied either intra-peritoneally (2×2 mg/kg) or via inhalation (2×4 mg/kg), first application was performed concomitantly with LPS administration, the second application was performed 1 h after the LPS inhalation.
The trachea was exposed through a midline incision and canulated with a sterile 20-gauge catheter (BD Venflon™, Becton Dickinson Infusion Therapy, Helsingborg, Sweden). Bilateral broncho-alveolar lavage fluid (BALF) was gained by instilling two 0.5 ml aliquots of sterile saline. Approximately 0.9-1 ml BALF was retrieved per mouse. Total cell numbers were counted from each sample using a hemo-cytometer (Türck chamber), BALF differential cell counts were done on cytospin preparations stained with Giemsa. For protein measurements, BALF was diluted 1:2 in buffer containing 300 mM NaCl, 30 mM Tris, 2 mM MgCl2, 2 mM CaCl2, and Pepstatin A, Leupeptin and Aprotinin (all 20 ng/ml; pH 7.4). Protein levels in BALF were measured using the BCA protein kit according to the manufacturer's instructions (Pierce, Rockford, Ill.).
In addition, the same set-up as described above was used for comparing the impact of XIB1-b compared to Bβ15-42 (PLoS ONE (2009), 4(4): e5391), a peptide derived from fibrin having the sequence […] (SEQ ID NO: 41). Bβ15-42 was added in the same manner as XIB1-b. Again, protein content and cell count of BALF was measured.

The mark [5] stands for this setting: ECV 304, LPS 100 μg/ml, 1 min, with or without peptide 50 μg/ml.
The mark [6] stands for this setting: ECV 304, LPS 100 μg/ml, 5 min, with or without peptide 50 μg/ml.
Where [7] appears, read: ECV 304, Thrombin 1 U/ml, 1 min, with or without peptide 50 μg/ml.
The mark [8] stands for this setting: ECV 304, Thrombin 1 U/ml, 5 min, with or without peptide 50 μg/ml.
Where [9] appears, read: ECV 304, no stimulus, 1 min, peptide 50 μg/ml.
Where [10] appears, read: ECV 304, no stimulus, 5 min, peptide 50 μg/ml.
Setting [11] is: Thrombin 1 U/ml, 1 min, with or without peptide 50 μg/ml.
[12] abbreviates: Thrombin 1 U/ml, 5 min, with or without peptide 50 μg/ml.
[13] abbreviates: no stimulus, 1 min, peptide 50 μg/ml.
[14] abbreviates: no stimulus, 5 min, peptide 50 μg/ml.
[15] abbreviates: CaCo-2, PMA 1 μg/ml, 1 min, with or without peptide 50 μg/ml.
Where [16] appears, read: CaCo-2, PMA 1 μg/ml, 5 min, with or without peptide 50 μg/ml.
[17] abbreviates: CaCo-2, no stimulus, 1 min, peptide 50 μg/ml.
[18] abbreviates: CaCo-2, no stimulus, 5 min, peptide 50 μg/ml.
[19] abbreviates: 6 h after LPS administration, intraperitoneal application (2×2 mg/kg).
Setting [20] is: 6 h after LPS administration, intratracheal application.

Marks after values point to notes of the source that are not given here.

For “GRRPGGASGG (/note=“Description of artificial sequence cingulin-derived peptide XIB1-a”)”, the “GTP-bound RhoA, relative values compared to unstimulated control (Mean)” value (shortened to “GTP-bound RhoA, relative values”) in assay [1] (setting [5]) is recorded as 1.6*; in assay [1] (setting [6]), 1.7*; in assay [1] (setting [7]), 2.1*; in assay [1] (setting [8]), 1.9*; in assay [1] (setting [9]), 1; in assay [1] (setting [10]), 1. The “GTP-bound RhoA, relative values” value is 2.1* in assay [2] (setting [11]), 1.3* in assay [2] (setting [12]), 1 in assay [2] (setting [13]) and 1 in assay [2] (setting [14]). The “MLC phosphorylation and actin stress fiber formation, evaluation score (Mean)” value in assay [3] (setting [15]) is 1*; in assay [3] (setting [16]) it was 2*; in assay [3] (setting [17]), 0; in assay [3] (setting [18]), 0. In assay [4], the “effect on barrier function in the LPS-inhalation model (neutrophils and albumin in BALF)” value is listed as “beneficial effect”.

As for “GRRPLGGISGG (/note=“Description of artificial sequence cingulin-derived peptide XIB1-b”)”, the “GTP-bound RhoA, relative values” value in assay [1] (setting [5]) is listed as 1.6*; in assay [1] (setting [6]), 1.7*; in assay [1] (setting [7]) it was 2.1*; in assay [1] (setting [8]) it was 1.9*; in assay [1] (setting [9]), 1; in assay [1] (setting [10]) it was 1. In addition, the “GTP-bound RhoA, relative values” value in assay [2] (setting [11]) was 2.1*; in assay [2] (setting [12]), 1.3*; in assay [2] (setting [13]) it was 1; in assay [2] (setting [14]), 1. The “MLC phosphorylation and actin stress fiber formation, evaluation score (Mean)” value in assay [3] (setting [15]) is reported as 1*; in assay [3] (setting [16]), 2*; in assay [3] (setting [17]) it was 0; in assay [3] (setting [18]), 0. In addition, the “counts of neutrophils in the BALF (mean +/ SD)” value is given as 15 +/− 15 neutrophils/ml (× 10^3) in assay [4] (comparison with Bβ15-42 (Table 6), 6 h after LPS, intratracheal plus intraperitoneal application); 25 +/− 22 neutrophils/ml (× 10^3) in assay [4] (setting [19]); 28 +/− 23 neutrophils/ml (× 10^3) in assay [4] (setting [20]). Also, the “albumine content of BALFs (mean +/ SD)” value in assay [4] (setting [19]) stood at 120 ± 12 µg/mL; in assay [4] (setting [20]), 98 ± 20 µg/mL. In addition, the “effect on barrier function in the LPS-inhalation model (neutrophils and albumin in BALF)” value in assay [4] was “beneficial effect”.

The values are drawn from patent US9012403B2, “Peptides as active agents to stabilize biological barriers” (XiberScience GmbH, priority 2010, dated 2015).
